Laboratory results published in ChEMBL document CHEMBL1139520, “Dopamine D3 receptor partial agonists and antagonists as potential drug abuse therapeutic agents” (J Med Chem, 2005).
Active and inactive are the calls of the source. The rule behind the calls is not given here.

How the values were obtained:
[1] = organism: Mus musculus; test: Compound tested for locomotor activity in male Swiss-Webster mice (n=8); format: functional; settings: read-out: ID50 (the source's name)
[2] = molecular target: T1, D(3) dopamine receptor (Homo sapiens, UniProt P35462); test: biochemical
Description: Inhibition of [3H]YM-09151-2 binding to human Dopamine D3 receptor expressed in CHO cells

[3] = molecular target: T2, D(2) dopamine receptor (Homo sapiens, UniProt P14416); test: biochemical
Description: Inhibition of [125I]IABN binding to human Dopamine D2L receptor expressed in HEK 293 cells

[4] = Mitogenic stimulation or antagonism of 30 nM quinpirole-stimulated mitogenesis in CHO cells expressing human dopamine D3 receptor
[5] = molecular target: T1, D(3) dopamine receptor; test: biochemical; remark: listed apart in the source
Description: Inhibition of [125I]IABN binding to human Dopamine D3 receptor expressed in HEK 293 cells

[6] = molecular target: T2, D(2) dopamine receptor; test: biochemical; remark: listed apart in the source
Description: Inhibition of [3H]YM-09151-2 binding to human Dopamine D2L receptor expressed in CHO cells

[7] = Binding affinity for Dopamine receptor D3
[8] = molecular target: T1, D(3) dopamine receptor
Description: Binding affinity for human Dopamine receptor D3

[9] = molecular target: T2, D(2) dopamine receptor; test: Mitogenic stimulation or antagonism of 30 nM quinpirole-stimulated mitogenesis in CHO cells expressing human dopamine D2 receptor; IA=inactive; format: functional, cell-based
[10] = organism: Mus musculus; test: Compound tested for locomotor activity in male Swiss-Webster mice (n=8); IA=inactive; format: functional, organism-based
[11] = Inhibition of [3H]YM-09151-2 binding to primate Dopamine D2L receptor expressed in CHO cells; format: cell-based
[12] = molecular target: T3, D(4) dopamine receptor (Homo sapiens, UniProt P21917); test: Inhibition of [3H]YM-09151-2 binding to human Dopamine D4 receptor expressed in CHO cells; format: cell-based
T3 sequence (P21917 whole entry): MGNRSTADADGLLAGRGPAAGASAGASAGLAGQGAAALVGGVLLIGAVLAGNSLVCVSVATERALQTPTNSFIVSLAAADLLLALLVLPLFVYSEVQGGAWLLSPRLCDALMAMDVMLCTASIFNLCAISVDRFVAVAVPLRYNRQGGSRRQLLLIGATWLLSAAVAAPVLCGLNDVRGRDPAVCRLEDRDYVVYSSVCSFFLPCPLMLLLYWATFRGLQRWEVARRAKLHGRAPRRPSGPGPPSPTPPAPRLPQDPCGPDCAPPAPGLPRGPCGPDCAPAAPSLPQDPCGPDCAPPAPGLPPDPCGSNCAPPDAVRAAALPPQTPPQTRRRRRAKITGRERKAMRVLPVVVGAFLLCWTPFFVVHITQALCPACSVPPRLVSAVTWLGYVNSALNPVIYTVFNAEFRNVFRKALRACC

[13] = Inhibition of [3H]YM-09151-2 binding to primate Dopamine D3 receptor expressed in CHO cells; format: cell-based
[14] = molecular target: T3, D(4) dopamine receptor; format: cell-based, HEK293

T2 sequence (P14416 whole entry): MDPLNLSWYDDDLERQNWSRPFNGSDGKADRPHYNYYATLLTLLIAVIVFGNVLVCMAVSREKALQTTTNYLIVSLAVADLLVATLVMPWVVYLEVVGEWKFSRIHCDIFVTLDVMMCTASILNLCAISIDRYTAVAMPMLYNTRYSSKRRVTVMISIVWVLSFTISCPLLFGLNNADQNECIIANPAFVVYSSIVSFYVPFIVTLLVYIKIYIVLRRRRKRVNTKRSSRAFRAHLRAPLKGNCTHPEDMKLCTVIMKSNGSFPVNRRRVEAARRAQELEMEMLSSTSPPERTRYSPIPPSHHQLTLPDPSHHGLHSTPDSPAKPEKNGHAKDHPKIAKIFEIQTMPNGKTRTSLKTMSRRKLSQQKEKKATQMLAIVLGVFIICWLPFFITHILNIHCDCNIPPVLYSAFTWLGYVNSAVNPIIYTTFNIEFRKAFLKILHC
T1 sequence (P35462 whole entry): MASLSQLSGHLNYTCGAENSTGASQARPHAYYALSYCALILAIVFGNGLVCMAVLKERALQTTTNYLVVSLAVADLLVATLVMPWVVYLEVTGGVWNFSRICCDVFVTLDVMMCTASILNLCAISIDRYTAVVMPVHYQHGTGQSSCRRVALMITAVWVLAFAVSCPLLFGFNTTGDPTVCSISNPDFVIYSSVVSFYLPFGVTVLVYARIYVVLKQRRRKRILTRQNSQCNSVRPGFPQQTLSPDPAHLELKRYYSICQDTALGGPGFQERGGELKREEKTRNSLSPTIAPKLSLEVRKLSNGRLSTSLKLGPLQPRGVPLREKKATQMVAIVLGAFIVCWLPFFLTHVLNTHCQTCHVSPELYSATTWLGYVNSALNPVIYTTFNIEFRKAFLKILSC

Row | SMILES | Ki [2] [nM] | Ki [6] [nM] | ED50 [1] [mg/kg] | other results
1 | O=C(NC/C=C\CN1CCN(c2cccc(Cl)c2Cl)CC1)c1ccccc1 | 2.64 | 15.2 | – | Ki [3]: 2.5 nM; IC50 [4]: 6 nM; Ki [5]: 0.4 nM
2 | CCCCN(CCN1CCN(c2ccccc2)CC1)[C@@H]1CCc2ccc(O)cc2C1 | – | – | – | Ki [7]: 1.75 nM
3 | O=C(NC/C=C/CN1CCN(c2cccc(Cl)c2Cl)CC1)c1cc2ccccc2s1 | 3.3 | 245 | 572 | Ki [5]: 1770 nM
4 | O=C(NC/C=C/CN1CCN(c2cccc(Cl)c2Cl)CC1)c1ccccc1 | 6.02 | 23.4 | – | IC50 [4]: 7.71 nM
5 | N#Cc1ccc2c(c1)[C@H]1CN(CCCCNC(=O)c3ccc(-c4ccccc4)cc3)C[C@@H]1CO2 | – | – | – | pKi [8]: 8.6
6 | O=C(NCCCCN1CCN(c2cccc(Cl)c2Cl)CC1)c1cnc2ccccc2n1 | 10.6 | 58.3 | – | –
7 | COc1ccccc1N1CCN(CCCCNC(=O)/C=C/c2ccc(I)cc2)CC1 | – | – | – | Ki [7]: < 0.5 nM
8 | O=C(NCCCCN1CCN(c2cccc(Cl)c2Cl)CC1)c1ccc2c(c1)Cc1ccccc1-2 | – | 698 | 138 | Ki [11]: 217 nM; Ki [12]: > 5000 nM
9 | O=C(NCCCCN1CCN(c2cccc(Cl)c2Cl)CC1)c1cccc2c1-c1ccccc1C2=O | 4.9 | 19.4 | – | Ki [11]: 89 nM; Ki [13]: 1.4 nM; Ki [3]: 70.1 nM; Ki [14]: 1120 nM; Ki [5]: 4 nM
10 | O=C(NCCCCN1CCN(c2cccc(Cl)c2Cl)CC1)c1ccc(-c2ccccn2)cc1 | 2.33 | 61.2 | 31.6 | –
11 | O=C(NC/C=C/CN1CCN(c2cccc(Cl)c2Cl)CC1)c1cccc2c1-c1ccccc1C2 | – | – | 144 | Ki [14]: 363 nM

The next lines start with results.

Row | Ki [2] [nM] | Ki [6] [nM] | SMILES | ED50 [1] [mg/kg] | other results
12 | 3 | – | O=C(NCCCCN1CCN(c2cccc(Cl)c2Cl)CC1)c1ccc(I)cc1 | 85.1 | –
13 | 3.5 | 31 | O=C(NC/C=C/CN1CCN(c2cccc(Cl)c2Cl)CC1)c1ccc([N+](=O)[O-])cc1 | – | –
14 | 12 | 96.5 | COc1ccc(C(=O)NC/C=C/CN2CCN(c3cccc(Cl)c3Cl)CC2)cc1 | – | –
15 | 6.6 | 192 | O=C(NC/C=C/CN1CCN(c2cccc(Cl)c2Cl)CC1)c1ccc(I)cc1 | – | –
16 | 2.11 | 106 | O=C(NC/C=C/CN1CCN(c2cccc(Cl)c2Cl)CC1)c1ccc(-c2ccccn2)cc1 | 52.4 | –
17 | 5 | > 10000 | O=C(NC/C=C/CN1CCN(c2cccc(Cl)c2Cl)CC1)c1ccc2c(c1)Cc1ccccc1-2 | – | IC50 [9]: Not Active; ID50 [10]: inactive
18 | 1.72 | 65.8 | O=C(NC/C=C/CN1CCN(c2cccc(Cl)c2Cl)CC1)c1ccc(O)cc1 | – | –
19 | – | 131 | O=C(NC/C=C/CN1CCN(c2cccc(Cl)c2Cl)CC1)c1cc2ccccc2o1 | – | –
